According to the NIST ThermoML archive (doi:10.1016/j.tca.2007.01.009):
Numbers after ± are expanded uncertainties.

Assay: wn = mass fraction of the nth substance listed
Settings: 101 kPa, Crystal, Hot wire method

For [Pb] [lead] + [Cd], the thermal conductivity (323.15 K, w2 = 0.033) was 38.36 ± 0.58 W/m/K, the thermal conductivity (323.15 K, w2 = 0.174) was 62.77 ± 0.94 W/m/K and the thermal conductivity (323.15 K, w2 = 0.9975) was 105.18 ± 1.6 W/m/K. It also gave a thermal conductivity (373.15 K, w2 = 0.033) of 35.94 ± 0.54 W/m/K, a thermal conductivity (373.15 K, w2 = 0.174) of 53.14 ± 0.8 W/m/K and a thermal conductivity (373.15 K, w2 = 0.9975) of 86.06 ± 1.3 W/m/K. The thermal conductivity (423.15 K, w2 = 0.033) was 30.79 ± 0.46 W/m/K, the thermal conductivity (423.15 K, w2 = 0.174) was 44.49 ± 0.67 W/m/K and the thermal conductivity (423.15 K, w2 = 0.9975) was 71.06 ± 1.1 W/m/K. For the same compound, the thermal conductivity (473.15 K, w2 = 0.033) was 30.37 ± 0.46 W/m/K, the thermal conductivity (473.15 K, w2 = 0.174) was 39.96 ± 0.6 W/m/K and the thermal conductivity (473.15 K, w2 = 0.9975) was 69.38 ± 1 W/m/K. It also gave a thermal conductivity (513.15 K, w2 = 0.033) of 27.68 ± 0.42 W/m/K, a thermal conductivity (513.15 K, w2 = 0.174) of 37.25 ± 0.56 W/m/K and a thermal conductivity (513.15 K, w2 = 0.9975) of 61.22 ± 0.92 W/m/K.

[Zn] [zinc] + [Sn] gave a thermal conductivity (323.15 K, w1 = 0.01) of 78.49 ± 1.2 W/m/K, a thermal conductivity (323.15 K, w1 = 0.089) of 86.39 ± 1.3 W/m/K and a thermal conductivity (373.1 K, w1 = 0.01) of 73.59 ± 1.1 W/m/K. It also gave a thermal conductivity (373.1 K, w1 = 0.089) of 81.42 ± 1.2 W/m/K, a thermal conductivity (423.15 K, w1 = 0.01) of 66.89 ± 1 W/m/K and a thermal conductivity (423.15 K, w1 = 0.089) of 79.04 ± 1.2 W/m/K. The thermal conductivity (463.15 K, w1 = 0.01) was 71.08 ± 1.1 W/m/K and the thermal conductivity (463.15 K, w1 = 0.089) was 75.42 ± 1.1 W/m/K.
